We go through two compounds from patent publication US20240336647A1, “NUCLEOSIDE ANALOGS AND THERAPEUTIC USE THEREOF” (priority 2023, published 2024).

“Also recorded” adds a separate entry of the source.

Assay [1] addresses T1, SARS-COV-2 RdRp (Severe acute respiratory syndrome coronavirus 2, UniProt P0DTD1). Nature of the assay: Primer extension to determine if m1A is incorporated onto RNA by RdRp via m1ATP (PAGE). In kind it is biochemical. Particulars: CTP, 37° C. The protocol: Determine if the m1A or m3C modification could be incorporated onto RNA or DNA by a polymerase via m1ATP or m3CTP, respectively: The SARS-COV-2 RdRp with m1ATP is used as the example. Sources of materials used in the experiment can be found in reference [Apostle et al Preprints doi:10.20944/preprints202311.1268.v1]. RNA duplex [F038]-[F039] (SEQ ID NOs: 12 and 13, FIG. 2) was prepared by annealing the two RNAs using the following procedure. The solution of RNAs [F038] (SEQ ID NO: 12, 20 μM, all concentrations are final) and [F039] (SEQ ID NO: 13, 20 μM) in Tris-HCl (10 mM), and KCI (100 mM) was heated at 94° C. for 5 min. The solution was then cooled to RT slowly giving the [F038]-[F039] (SEQ ID NOs: 12 and 13) duplex. […] To another tube containing only the RNA duplex in 10 μL nuclease free water ([…], corresponding to the experiment of lane 1 in FIG. 2) were also added the EDTA and loading dye solutions (same quantities as above, final volume 30 μL). […]
The results of the primer extension reaction is shown in FIG. 2, gel image for determining if m1A could be incorporated onto RNA by SARS-COV-2 RdRp via m1ATP. […] The reaction products were analyzed with PAGE. […]

The target in assay [2] is T1, SARS-COV-2 RdRp. In kind it is biochemical.

For `C[n+]1cnc2c(ncn2[C@@H]2O[C@H](COP(=O)(O)OP(=O)(O)OP(=O)(O)O)C(O)C2O)c1N` (stereo partly drawn) [m1ATP], on SARS-COV-2 RdRp [1] (m1ATP only for 15 min, then ATP, GTP and UTP), the “inhibition of RdRp by m1ATP” value was “does not inhibit RdRp”. In addition, at SARS-COV-2 RdRp [1] (m1ATP, GTP, UTP 0.5 mM each, no ATP, 2 h), the “incorporation of m1A into RNA by RdRp via m1ATP” value is listed as “m1A can be incorporated into RNA by SARS-COV-2 RdRp via m1ATP; also recorded: m1A could indeed be efficiently incorporated into RNA by SARS-COV-2 RdRp; also recorded: m1A can be incorporated onto RNA”. Turning to `C[n+]1c(N)ccn([C@@H]2O[C@H](CO)C(O)C2O)c1=O` (stereo partly drawn) [m3C, N3-methylcytidine], the “effect of the modification in template RNA on RdRp catalytic activity” value on SARS-COV-2 RdRp [2] was “has minimal impact; also recorded: can be tolerated by the RdRp; also recorded: has little effect on the RdRp”.
